Entries after “also recorded” stand apart in the source; their conditions may differ.
Columns and labels:
Han:SPRD rats [1] = experiment: BHB, citrate and combined BHB-citrate treatment in drinking water of Han:SPRD PKD rats, post-natal weeks 3-8; format: in vivo, rat; details: for dose dependence of benefit on PKD progression: varying concentrations, citrate particularly at the 120 mM dosage
Procedure: To investigate BHB, citrate, and combined BHB and citrate effects on PKD progression, Han:SPRD rats were treated with BHB or a combination of BHB and citrate from post-natal weeks 3-8 in the context of ad libitum feeding with normal, high-carbohydrate chow (NC). In the BHB treatments, BHB was administered as a sodium and potassium salt in the drinking water ad libitum at a dose equivalent to that recommended as a dietary supplement in BHB supplement drinks. In the citrate treatments, citrate was administered as a combination of tripotassium citrate and citric acid at a (0.82/1) ratio at a dose equivalent to that recommended utilized in citrate dietary supplements. Control cohorts received either normal water or water supplemented with the molar equivalents of salt provided in the BHB or BHB-citrate supplements (a mixture of NaCl/KCl). […]

Han:SPRD rats [2] = experiment: Oral BHB treatment in drinking water of juvenile Han:SPRD PKD rats, post-natal weeks 3-8; format: in vivo, rat
Procedure: Han:SPRD rats, a non-orthologous model of PKD with a mutation in Anks6 were placed on a time-restricted feeding (TRF) regime wherein TRF animals had access to food for an 8-h period within their 12-h dark cycle. Animals were treated for 5 weeks from post-natal weeks 3-8. […] Additionally, TRF-treated animals had increased levels of BHB and reduced blood glucose indicative of ketosis. Oral BHB Treatment Prevents Polycystic Disease Progression in Juvenile Rats. To investigate if BHB might affect PKD progression, Han:SPRD rats were treated with BHB from post-natal weeks 3-8 in the context of ad libitum feeding with normal, high-carbohydrate chow (NC). BHB was administered as a sodium and potassium salt in the drinking water ad libitum at a dose equivalent to that recommended as a dietary supplement in BHB supplement drinks. Control cohorts received either normal water or water supplemented with the molar equivalents of salt provided in the BHB supplement (a mixture of NaCl/KCl).

[3] = PKD rats, 5 weeks BHB in drinking water
[4] = PKD rats, 5 weeks BHB in drinking water, normal chow, vs water- and salt-treated controls

Row | Compound | effect on body weight (Han:SPRD rats [1]; 5 weeks in drinking water) | effect on wild-type kidneys and other organs (Han:SPRD rats [1]; 5 weeks in drinking water) | 2-kidney to body weight ratio (Han:SPRD rats [1]; PKD rats, 5 weeks, vs water- and salt-treated controls (FIG. 8A)) | cystic area (Han:SPRD rats [1]; PKD rats, 5 weeks, vs water- and salt-treated controls (FIG. 8B)) | kidneys of PKD animals at the gross and histological level (Han:SPRD rats [1]; after 5 weeks of treatment) | dose dependence of benefit on PKD progression (Han:SPRD rats [1]) | effect on body weight (Han:SPRD rats [2]; 5 weeks BHB in drinking water) | effect on wild-type kidneys and other organs (Han:SPRD rats [2]; 5 weeks BHB in drinking water) | fibrosis (Han:SPRD rats [2]; [3]) | kidney function (assessed by creatinine) (Han:SPRD rats [2]; [3]) | myofibroblasts (Han:SPRD rats [2]; [3]) | proliferation (Han:SPRD rats [2]; [3]) | 2-kidney to body weight ratio (Han:SPRD rats [2]; [4]) | cystic area (Han:SPRD rats [2]; [4]) | kidneys of PKD animals at the gross and histological level (Han:SPRD rats [2]; after 5 weeks of treatment)
1 | CC(O)CC(=O)O (stereo not drawn) [BHB, beta-hydroxybutyric acid] | no effect | Neither wild-type kidneys nor other organs were affected | striking reductions | striking reductions | nearly indistinguishable from kidneys of wild-type animals | dose-dependent benefits | no effect | Neither wild-type kidneys nor other organs were affected | strong reduction | improved | almost complete elimination; also recorded: almost complete absence | inhibition | striking and unexpected reductions | striking and unexpected reductions | nearly indistinguishable from kidneys of wild-type animals
2 | citrate |  |  |  |  |  | dose-dependent therapeutic effects |  |  |  |  |  |  |  |  | 

Source: patent US11013705B2, “Methods and compositions for supporting renal health” (The Regents of the University of California, priority 2019, dated 2021)
